Publication PMC12260505, “First-in-Human Phase I/IIa Study of the First-in-Class CDK2/4/6 Inhibitor PF-06873600 Alone or with Endocrine Therapy in Patients with Breast Cancer” (Clinical Cancer Research, 2025)
Several values for one entry are separate records, joined by “and”; a condition that tells them apart may be missing. Identical values can stand only once.

Experiment: Plasma PF-06873600 pharmacokinetics (LC/MS-MS, noncompartmental analysis)
Format: in vivo, human
Method: Plasma samples were analyzed for PF-06873600 concentrations at Q2 Solutions using a validated analytic assay in compliance with Pfizer standard operating procedures. PF-06873600 samples were assayed by a validated LC/MS-MS using positive ionization mode. PK parameters were calculated using noncompartmental analysis of plasma concentration–time data.

[1] = 25 mg twice daily, after multiple dosing
[2] = Cycle 1 Day 1, Part 1 25 mg BID IR (pooled cohorts)
[3] = Cycle 1 Day 1, Part 1A 1 mg BID IR
[4] = Cycle 1 Day 1, Part 1A 2 mg BID IR
[5] = Cycle 1 Day 1, Part 1A 5 mg BID IR
[6] = Cycle 1 Day 1, Part 1A 10 mg BID IR
[7] = Cycle 1 Day 1, Part 1A 25 mg BID Biomarker IR
[8] = Cycle 1 Day 1, Part 1A 25 mg BID IR
[9] = Cycle 1 Day 1, Part 1A 35 mg BID IR
[10] = Cycle 1 Day 1, Part 1A 35 mg BID Intm 5/2 IR
[11] = Cycle 1 Day 1, Part 1A 50 mg BID IR
[12] = Cycle 1 Day 1, Part 1B 25 mg BID +Ful IR
[13] = Cycle 1 Day 1, Part 1B 25 mg BID +Let IR
[14] = Cycle 1 Day 1, Part 1C MR 20 mg lead-in IR 25 mg BID
[15] = Cycle 1 Day 1, Part 1C MR 30 mg BID long duration
[16] = Cycle 1 Day 15, Part 1 25 mg BID IR (pooled cohorts)
[17] = Cycle 1 Day 15, Part 1A 1 mg BID IR

**Q.** What does the source list for `C[C@@]1(O)CCC[C@H]1n1c(=O)c(C(F)F)cc2cnc(NC3CCN(S(C)(=O)=O)CC3)nc21` [PF-06873600]?
**A.** Geometric mean coefficient of variation percentage, AUCtau [1]: 45%; Geometric mean coefficient of variation percentage, Cmax [1]: 43%; Geometric mean coefficient of variation percentage, Cmin [1]: 119%; Geometric mean coefficient of variation percentage, AUCinf (25 mg twice daily, single dose): 58%; Geometric mean coefficient of variation percentage, Cmax (25 mg twice daily, single dose): 56%; AUCinf, geometric mean (%CV) [2]: 1019 (58) ng.h/mL; AUClast, geometric mean (%CV) [2]: 912.4 (52) ng.h/mL; CL/F, geometric mean (%CV) [2]: 24.55 (58) L/h; Cmax, geometric mean (%CV) [2]: 194 ng/mL; Tmax, median (range) [2]: 2.00 h; Vz/F, geometric mean (%CV) [2]: 85.26 (52) L; t1/2, arithmetic mean±standard deviation [2]: 2.444 ± 0.4523 h; AUCinf, individual value(s) [3]: 21.0 ng·h/mL; AUClast, individual value(s) [3]: 18.3 ng·h/mL; CL/F, individual value(s) [3]: 47.6 L/h; Cmax, individual value(s) [3]: 5.39 ng/mL; Tmax, median (range) [3]: 2.17 h; Vz/F, individual value(s) [3]: 111 L; t1/2, individual value(s) [3]: 5800 s; AUCinf, individual value(s) [4]: 45.2 ng·h/mL; AUClast, individual value(s) [4]: 39.2 ng·h/mL and 58.3 ng·h/mL; CL/F, individual value(s) [4]: 44.2 L/h; Tmax, median (range) [4]: 1.25 h; Vz/F, individual value(s) [4]: 116 L; t1/2, individual value(s) [4]: 6550 s; AUCinf, individual value(s) [5]: 101 ng·h/mL; AUClast, individual value(s) [5]: 96.6 ng·h/mL and 442 ng·h/mL; CL/F, individual value(s) [5]: 49.7 L/h; Tmax, median (range) [5]: 2.02 h; Vz/F, individual value(s) [5]: 141 L; t1/2, individual value(s) [5]: 7060 s; AUCinf, geometric mean (%CV) [6]: 648.4 (60) ng.h/mL; AUClast, geometric mean (%CV) [6]: 599.4 (53) ng.h/mL; CL/F, geometric mean (%CV) [6]: 15.43 (60) L/h; Cmax, geometric mean (%CV) [6]: 164 ng/mL; Tmax, median (range) [6]: 0.983 h; Vz/F, geometric mean (%CV) [6]: 55.32 (28) L; t1/2, arithmetic mean±standard deviation [6]: 2.567 h; AUCinf, geometric mean (%CV) [7]: 892.6 (73) ng.h/mL; AUClast, geometric mean (%CV) [7]: 787.9 (59) ng.h/mL; CL/F, geometric mean (%CV) [7]: 28.04 (73) L/h; Tmax, median (range) [7]: 1.90 h; Vz/F, geometric mean (%CV) [7]: 97.32 (56) L; t1/2, arithmetic mean±standard deviation [7]: 2.446 h; AUCinf, geometric mean (%CV) [8]: 1492 (20) ng.h/mL; AUClast, geometric mean (%CV) [8]: 1295 (25) ng.h/mL; CL/F, geometric mean (%CV) [8]: 16.78 (20) L/h; Cmax, geometric mean (%CV) [8]: 244 ng/mL; Tmax, median (range) [8]: 2.17 h; Vz/F, geometric mean (%CV) [8]: 61.33 (20) L; t1/2, arithmetic mean±standard deviation [8]: 2.540 h; AUCinf, individual value(s) [9]: 2010 ng·h/mL and 3400 ng·h/mL; AUClast, geometric mean (%CV) [9]: 2510 (25) ng.h/mL; CL/F, individual value(s) [9]: 10.3 L/h and 17.4 L/h; Cmax, geometric mean (%CV) [9]: 388 ng/mL; Tmax, median (range) [9]: 3.64 h; Vz/F, individual value(s) [9]: 55.5 L and 60.0 L; t1/2, individual value(s) [9]: 8600 s and 13500 s; AUCinf, geometric mean (%CV) [10]: 1614 (48) ng.h/mL; AUClast, geometric mean (%CV) [10]: 1395 (38) ng.h/mL; CL/F, geometric mean (%CV) [10]: 21.70 (48) L/h; Cmax, geometric mean (%CV) [10]: 276 ng/mL; Tmax, median (range) [10]: 2.02 h; Vz/F, geometric mean (%CV) [10]: 86.06 (37) L; t1/2, arithmetic mean±standard deviation [10]: 2.809 h; AUCinf, geometric mean (%CV) [11]: 1875 (41) ng.h/mL; AUClast, geometric mean (%CV) [11]: 1976 (49) ng.h/mL; CL/F, geometric mean (%CV) [11]: 26.63 (41) L/h; Cmax, geometric mean (%CV) [11]: 394 ng/mL; Tmax, median (range) [11]: 3.49 h; Vz/F, geometric mean (%CV) [11]: 79.74 (15) L; t1/2, arithmetic mean±standard deviation [11]: 2.163 h; AUCinf, geometric mean (%CV) [12]: 884.3 (34) ng.h/mL; AUClast, geometric mean (%CV) [12]: 1034 (43) ng.h/mL; CL/F, geometric mean (%CV) [12]: 28.26 (34) L/h; Cmax, geometric mean (%CV) [12]: 225 ng/mL; Tmax, median (range) [12]: 1.97 h; Vz/F, geometric mean (%CV) [12]: 83.54 (17) L; t1/2, arithmetic mean±standard deviation [12]: 2.128 h; AUCinf, geometric mean (%CV) [13]: 1142 (50) ng.h/mL; AUClast, geometric mean (%CV) [13]: 1040 (46) ng.h/mL; CL/F, geometric mean (%CV) [13]: 21.87 (50) L/h; Cmax, geometric mean (%CV) [13]: 228 ng/mL; Tmax, median (range) [13]: 2.52 h; Vz/F, geometric mean (%CV) [13]: 72.18 (37) L; t1/2, arithmetic mean±standard deviation [13]: 2.428 h; AUCinf, geometric mean (%CV) [14]: 593.3 (17) ng.h/mL; AUClast, geometric mean (%CV) [14]: 596.8 (33) ng.h/mL; CL/F, geometric mean (%CV) [14]: 42.14 (17) L/h; Cmax, geometric mean (%CV) [14]: 122 ng/mL; Tmax, median (range) [14]: 2.00 h; Vz/F, geometric mean (%CV) [14]: 132.2 (52) L; t1/2, arithmetic mean±standard deviation [14]: 2.250 h; AUClast, geometric mean (%CV) [15]: 192.0 (201) ng.h/mL; Cmax, geometric mean (%CV) [15]: 43.5 ng/mL; Tmax, median (range) [15]: 10.0 (5.35–10.2) h; AUCtau, geometric mean (%CV) [16]: 1351 (45) ng.h/mL; CL/F, geometric mean (%CV) [16]: 18.53 (45) L/h; Cmax, geometric mean (%CV) [16]: 315.5 (43) ng/mL; Cmin, geometric mean (%CV) [16]: 30.23 (119) ng/mL; Rac (observed accumulation ratio based on AUC), geometric mean (%CV) [16]: 1.135 (34); Tmax, median (range) [16]: 1.94 h; Vz/F, geometric mean (%CV) [16]: 75.77 (43) L; t1/2, arithmetic mean±standard deviation [16]: 2.765 h; AUCtau, individual value(s) [17]: 25.3 ng·h/mL; CL/F, individual value(s) [17]: 39.5 L/h
